Converted amounts (≈) assume the structure as drawn. The source made the active and inactive calls. The rule behind the calls is not given here. *1 amine or outer side, *2 acyl side, *3 side chain or, on linkers, in order; H or OH if unused. Where a SMILES comes first, the peptide text is derived from it. [ ]: non-standard residue; d: D form. X2 = CC[C@H](C)[C@H](OC(=O)[C@@H](C)[C@@H](CC)N[*:1])C(=O)[*:2]; X1 = C[C@H](N[*:1])C(=O)C(C)(C)C(=O)[*:2]; NMeY = CN[C@@H](Cc1ccc(O)cc1)C(=O)O; NMeF = CN[C@@H](Cc1ccccc1)C(=O)O; NMeI = CC[C@H](C)[C@H](NC)C(=O)O; NMeL = CN[C@@H](CC(C)C)C(=O)O; NMeV = CN[C@H](C(=O)O)C(C)C; NMeA = CN[C@@H](C)C(=O)O
Columns and labels:
[1] = Cytotoxicity against human H116 cells assessed as zone units at 2 ug/disk by Corbett soft agar disk diffusion assay; assay type: functional
A10 [2] = assay: Effect on morphology in rat A10 cells assessed as formation of binuclear cells at 0.01 to 2 ug/ml; assay type: functional, cell-based
Mus musculus [3] = assay: Toxicity in mouse mammary 16/C cells xenografted C3H mouse assessed as body weight loss at nadir at 3.2 mg/kg, iv administered in d 1,2 schedule; assay type: organism-based; design: dose 3.2 mg/kg, route intravenous; settings: in vivo
Mus musculus [4] = assay: Toxicity in mouse mammary 16/C cells xenografted C3H mouse assessed as body weight loss at nadir at 6.4 mg/kg, iv administered in QD 1-8 schedule; assay type: organism-based; design: dose 6.4 mg/kg, route intravenous; settings: in vivo
KB = assay: Cytotoxicity against human KB cells; assay type: functional
MC-38 [5] = assay: Cytotoxicity against mouse Colon 38 cells assessed as zone units at 2 ug/disk by Corbett soft agar disk diffusion assay; assay type: functional
MC-38 [6] = assay: Antitumor activity against mouse Colon 38 cells xenografted BDF mouse at 7.5 mg/kg, iv administered in QD 3-11 schedule; assay type: functional
Mus musculus [7] = assay: Necrosis in iv dosed mouse assessed as inflamed, bloody, upper GI tract with pancreatic damage and hemorrhage in lungs; assay type: organism-based, Gastrointestinal tract; settings: in vivo
[8] = Cytotoxicity against CFU-GM cells assessed as zone units at 2 ug/disk by Corbett soft agar disk diffusion assay; assay type: functional
Mus musculus [9] = assay: Toxicity in mouse Colon 38 cells xenografted BDF mouse assessed as body weight loss at nadir at 10.3 mg/kg, iv administered in QD 3-11 schedule; assay type: organism-based, MC-38; design: dose 10.3 mg/kg, route intravenous; settings: in vivo
A10 [10] = assay: Inhibition of cytokinesis in rat A10 cells at 0.01 to 2 ug/ml; assay type: functional, cell-based
A10 [11] = assay: Effect on morphology in rat A10 cells assessed as microtubule loss at 0.01 to 2 ug/ml after 24 hrs by […]; assay type: functional, cell-based
Mus musculus [12] = assay: Toxicity in mouse mammary 16/C cells xenografted C3H mouse assessed as mortality at 3.2 mg/kg, iv administered in d 1,2 schedule; assay type: organism-based; design: dose 3.2 mg/kg, route intravenous; settings: in vivo
A10 [13] = assay: Induction of apoptosis in rat A10 cells assessed as apoptotic nuclei at 2 ug/ml; assay type: functional, cell-based
[14] = Antitumor activity against mouse mammary 16/C cells xenografted C3H mouse at 6.4 mg/kg, iv administered in QD 1-8 schedule; assay type: functional
[15] = Cytotoxicity against mouse mammary 17/Adr cells assessed as zone units at 2 ug/disk by Corbett soft agar disk diffusion assay; assay type: functional
Mus musculus [16] = assay: Toxicity in mouse Colon 38 cells xenografted BDF mouse assessed as body weight loss at nadir at 7.5 mg/kg, iv administered in QD 3-11 schedule; assay type: organism-based, MC-38; design: dose 7.5 mg/kg, route intravenous; settings: in vivo
MC-38 [17] = assay: Antitumor activity against mouse Colon 38 cells xenografted BDF mouse at 10.3 mg/kg, iv administered in QD 3-11 schedule; assay type: functional
Mus musculus [18] = assay: Toxicity in mouse mammary 16/C cells xenografted C3H mouse assessed as mortality at 6.4 mg/kg, iv administered in QD 1-8 schedule; assay type: organism-based; design: dose 6.4 mg/kg, route intravenous; settings: in vivo
L1210 [19] = assay: Cytotoxicity against mouse L1210 cells assessed as zone units at 2 ug/disk by Corbett soft agar disk diffusion assay; assay type: functional
LoVo = assay: Cytotoxicity against human LoVo cells; assay type: functional
[20] = Antitumor activity against mouse mammary 16/C cells xenografted C3H mouse at 3.2 mg/kg, iv administered in d 1,2 schedule; assay type: functional
L1210 [21] = assay: Cytotoxicity against mouse L1210 cells assessed as zone units at 12 ug/disk by Corbett soft agar disk diffusion assay; assay type: functional
[22] = Cytotoxicity against CFU-GM cells assessed as zone units at 12 ug/disk by Corbett soft agar disk diffusion assay; assay type: functional
MC-38 [23] = assay: Cytotoxicity against mouse Colon 38 cells assessed as zone units at 12 ug/disk by Corbett soft agar disk diffusion assay; assay type: functional
[24] = Cytotoxicity against human H116 cells assessed as zone units at 12 ug/disk by Corbett soft agar disk diffusion assay; assay type: functional
A10 [25] = assay: Effect on morphology in rat A10 cells assessed as microtubule loss at 0.2 ug/ml after 24 hrs by […]; assay type: functional, cell-based
A10 [26] = assay: Effect on morphology in rat A10 cells assessed as microtubule loss at 2 ug/ml after 24 hrs by […]; assay type: functional, cell-based
A10 [27] = assay: Effect on morphology in rat A10 cells assessed as formation of binuclear cells; assay type: functional, cell-based
Mus musculus [28] = assay: Toxicity in mouse mammary 16/C cells xenografted C3H mouse assessed as mortality at 4.8 mg/kg, iv administered in d 1,2 schedule; assay type: organism-based; design: dose 4.8 mg/kg, route intravenous; settings: in vivo
Mus musculus [29] = assay: Toxicity in mouse mammary 16/C cells xenografted C3H mouse assessed as body weight loss at nadir at 11.7 mg/kg, iv administered in QD 1-9 schedule; assay type: organism-based; design: dose 11.7 mg/kg, route intravenous; settings: in vivo
Mus musculus [30] = assay: Toxicity in mouse Colon 38 cells xenografted BDF mouse assessed as mortality at 13 mg/kg, iv administered in QD 3-11 schedule; assay type: organism-based, MC-38; design: dose 13 mg/kg, route intravenous; settings: in vivo
A10 [31] = assay: Inhibition of cytokinesis in rat A10 cells; assay type: functional, cell-based
Mus musculus [32] = assay: Toxicity in mouse Colon 38 cells xenografted BDF mouse assessed as body weight loss at nadir at 15 mg/kg, iv administered in d 3,4,7-10 schedule; assay type: organism-based, MC-38; design: dose 15 mg/kg, route intravenous; settings: in vivo
Mus musculus [33] = assay: Toxicity in mouse mammary 16/C cells xenografted C3H mouse assessed as mortality at 11.7 mg/kg, iv administered in QD 1-9 schedule; assay type: organism-based; design: dose 11.7 mg/kg, route intravenous; settings: in vivo
A10 [34] = assay: Effect on morphology in rat A10 cells assessed as loss of cellular microfilament network at 0.2 ug/ml after 24 hrs by rhodamine-phalloidin staining; assay type: functional, cell-based
Mus musculus [35] = assay: Toxicity in mouse Colon 38 cells xenografted BDF mouse assessed as body weight loss at nadir at 13 mg/kg, iv administered in QD 3-11 schedule; assay type: organism-based, MC-38; design: dose 13 mg/kg, route intravenous; settings: in vivo
MC-38 [36] = assay: Antitumor activity against mouse Colon 38 cells xenografted BDF mouse at 15 mg/kg, iv administered in d 3,4,7-10 schedule; assay type: functional, organism-based; design: dose 15 mg/kg
[37] = Antitumor activity against mouse mammary 16/C cells xenografted C3H mouse at 11.7 mg/kg, iv administered in QD 1-9 schedule; assay type: functional
A10 [38] = assay: Induction of apoptosis in rat A10 cells assessed as fragmented cell nuclei at 0.2 ug/ml; assay type: functional, cell-based
Mus musculus [39] = assay: Antitumor activity against mouse mammary 16/C cells xenografted C3H mouse at 4.8 mg/kg, iv administered in d 1,2 schedule; assay type: functional, organism-based; design: dose 4.8 mg/kg
MC-38 [40] = assay: Antitumor activity against mouse Colon 38 cells xenografted BDF mouse at 13 mg/kg, iv administered in QD 3-11 schedule; assay type: functional
A10 [41] = assay: Effect on morphology in rat A10 cells assessed as loss of cellular microfilament network at 2 ug/ml after 24 hrs by rhodamine-phalloidin staining; assay type: functional, cell-based
Mus musculus [42] = assay: Toxicity in mouse mammary 16/C cells xenografted C3H mouse assessed as body weight loss at nadir at 4.8 mg/kg, iv administered in d 1,2 schedule; assay type: organism-based; design: dose 4.8 mg/kg, route intravenous; settings: in vivo

CC[C@H](C)[C@@H]1OC(=O)[C@@H](C)[C@@H](CC)NC(=O)[C@H](C)N(C)C(=O)C(C)(C)C(=O)[C@H](C)NC(=O)[C@H](Cc2ccccc2)N(C)C(=O)[C@H](C(C)C)N(C)C(=O)CNC(=O)[C@H](CC(C)C)N(C)C(=O)CNC1=O [DOLASTATIN 12] (cyclo(G[NMeL]G[NMeV][NMeF][X1][NMeA][X2]))
Activity [1]: 480 Zone units
Activity (A10 [2]): Active
Activity (Mus musculus [3]): -13%
Activity (Mus musculus [4]): -3%
MIC (KB): < 0.05 µg/mL
Activity (MC-38 [5]): 630 Zone units
T/C (MC-38 [6]): 92%
Activity (Mus musculus [7]): Toxic
Activity [8]: 500 Zone units
Activity (Mus musculus [9]): -15%
Activity (A10 [10]): Active
Activity (A10 [11]): inactive
Activity (Mus musculus [12]): Toxic
Activity (A10 [13]): Active
T/C [14]: 86%
Activity [15]: 270 Zone units
Activity (Mus musculus [16]): -8%
T/C (MC-38 [17]): 41%
Activity (Mus musculus [18]): Non-toxic
Activity (L1210 [19]): 420 Zone units
MIC (LoVo): 0.08 µg/mL (≈ 0.0825 µM)
T/C [20]: 68%

CC[C@H](C)[C@@H]1OC(=O)[C@@H](C)[C@@H](CC)NC(=O)[C@H](C)NC(=O)C(C)(C)C(=O)[C@H](C)NC(=O)[C@H](Cc2ccc(OC)cc2)N(C)C(=O)[C@H](C(C)C)N(C)C(=O)CNC(=O)[C@H]([C@@H](C)CC)N(C)C(=O)CNC1=O [MAJUSCULAMIDE] (cyclo(A[X2]G[NMeI]G[NMeV][NMeY](Me)[X1]))
Activity (L1210 [21]): 500 Zone units
Activity [22]: 450 Zone units
Activity (MC-38 [23]): 730 Zone units
Activity [24]: 710 Zone units

CC[C@H](C)[C@@H]1OC(=O)[C@@H](C)[C@@H](CC)NC(=O)[C@H](C)N(C)C(=O)C(C)(C)C(=O)[C@H](C)NC(=O)[C@H](Cc2ccc(OC)cc2)N(C)C(=O)[C@H](C(C)C)N(C)C(=O)CNC(=O)[C@H](CC(C)C)N(C)C(=O)CNC1=O [epilyngbyastatin 1] (cyclo(G[NMeL]G[NMeV][NMeY](Me)[X1][NMeA][X2]))
Activity [1]: 580 Zone units
Activity (A10 [25]): inactive
Activity (A10 [26]): inactive
Activity (A10 [27]): inactive
MIC (KB): 0.1 µg/mL (≈ 0.1 µM)
Activity (Mus musculus [28]): Toxic
Activity (MC-38 [5]): 670 Zone units
Activity (Mus musculus [29]): -4%
Activity (Mus musculus [30]): Non-toxic
Activity (A10 [31]): inactive
Activity (Mus musculus [32]): -8%
Activity (Mus musculus [33]): Non-toxic
Activity (A10 [34]): Active
Activity (Mus musculus [35]): -3%
Activity (Mus musculus [7]): Toxic
Activity [8]: 570 Zone units
Activity (MC-38 [36]): Toxic
T/C [37]: 61%
Activity (A10 [13]): Active
Activity [15]: 650 Zone units
Activity (A10 [38]): inactive
Activity (Mus musculus [39]): Toxic
T/C (MC-38 [40]): 93%
Activity (A10 [41]): Active
Activity (L1210 [19]): 450 Zone units
Activity (Mus musculus [42]): Toxic
MIC (LoVo): 0.5 µg/mL (≈ 0.5 µM)

— ChEMBL document CHEMBL1150960, “Isolation, structure determination, and biological activity of dolastatin 12 and lyngbyastatin 1 from Lyngbya majuscula/Schizothrix calcicola cyanobacterial assemblages” (J Nat Prod, 1998)
